From patent publication US8143374B2, “Polypeptide derivatives of parathyroid hormone (PTH)” (The General Hospital Corporation, priority 2006, dated 2012)
Several values for one entry are separate records, joined by “and”; a condition that tells them apart may be missing. Equal values may be shown once. Read-outs that look alike come from different tables or passages of the source. Where a SMILES comes first, the peptide text is derived from it. Where no end group is shown, it is not given here. [ ]: non-standard residue; d: D form. hArg = N=C(N)NCCCC[C@H](N)C(=O)O; Cha = N[C@@H](CC1CCCCC1)C(=O)O; Nle = CCCC[C@H](N)C(=O)O; Aib = CC(C)(N)C(=O)O

Tests used:
PTHR-delNt = target: T1, PTHR-delNt (Homo sapiens, UniProt Q03431, DEL24-181); assay: Competition binding in COS-7 cell membranes with 125I-[Aib1,3,M]PTH(1-15)NH2 tracer; details: for IC50: COS-7 membranes cotransfected with negative-dominant Gαs, read-out: PTHR-delNT (COS-7) IC50
T1 construct: expressed in transfected cells; host or cells: COS-7 cells, transient co-transfection; membranes prepared
T1 sequence (Q03431 with tags, fused parts or gaps DEL24-181): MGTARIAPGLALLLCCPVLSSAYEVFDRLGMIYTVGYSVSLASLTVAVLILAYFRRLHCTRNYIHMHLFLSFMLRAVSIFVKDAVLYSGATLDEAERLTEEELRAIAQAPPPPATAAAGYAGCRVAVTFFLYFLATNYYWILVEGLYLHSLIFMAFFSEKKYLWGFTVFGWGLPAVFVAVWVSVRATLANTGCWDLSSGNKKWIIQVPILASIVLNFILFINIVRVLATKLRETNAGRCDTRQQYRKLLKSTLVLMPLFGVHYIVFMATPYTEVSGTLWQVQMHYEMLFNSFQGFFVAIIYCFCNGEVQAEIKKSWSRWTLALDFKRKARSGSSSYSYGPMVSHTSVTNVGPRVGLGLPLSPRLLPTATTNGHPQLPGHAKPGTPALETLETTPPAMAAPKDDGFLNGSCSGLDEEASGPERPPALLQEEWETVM
Procedure: PTHR-delNt is a derivative of the human PTHR that is deleted for most (Ala^24-Arg^181) of the amino-terminal extracellular domain (Shimizu, M., et al. (2001) Endocrinology 142:3068-3074). This PTHR construct was expressed in COS-7 cells via transient DNA transfection. For cAMP assays, the cells were transfected in 24-well plates using 0.2 μg of plasmid DNA and 0.6 μl of Fugene-6 reagent (Roche Diagnostics, Indianapolis Ind.) per well, and assays were performed on the intact cells three to four days after transfection. For binding assays, cell membranes were prepared from transfected COS-7 cells. To increase the maximal binding of ^125I-[Aib^1,3,M]PTH(1-15)NH2 to PTHR-delNt in these membranes, the cells were cotransfected with a negative dominant mutant Gαs protein (Gαs^ND). This mutant Gαs subunit is thought to couple to cognate receptors, and thus stabilize high affinity receptor conformations, more efficiently than does wild-type Gαs, without increasing basal cAMP levels (Berlot, C. H. (2002) J Biol Chem 277:21080-5). A precursor of this mutant Gαs, Gαs(α3β5), was recently used to increase binding of ^125I-[Aib^1,3,M]PTH(1-15)NH2 to PTHR-delNt in COS-7 cell membranes (Dean, T., (2006) Mol Endocrinol 20:931-942). Gαs^ND, which contains the same five amino acid replacement of corresponding Gαi residues in the α3β5 loop as Gαs(α3β5), plus the point mutations of Gly^226 to Ala, which increases affinity for Gβ/γ, and Ala^366 to Ser, which decreases affinity for GDP, yields approximately two-fold higher levels of specific binding of ^125I-[Aib^1,3,M]PTH(1-15)NH2 than does Gαs(α3β5) (data not shown). For the current membrane preparations, COS-7 cells were co-transfected in six-well plates using 1 μg of each plasmid DNA encoding PTHR-delNt and Gαs^ND, and 6 μl of Fugene-6 reagent (Roche Diagnostics, Indianapolis Ind.) per well. Cells were harvested three days after transfection, and membranes were prepared as described (Dean, T., et al. (2006) Mol Endocrinol 20:931-942).
Receptor binding—Binding to the wild-type human PTHR in intact HKRK-B7 cells and ROS 17/2.8 cells was assessed using ^125I-PTH(1-34) as a tracer radioligand, as described (Shimizu, M., (2001) Endocrinology 142:3068-3074). In brief, the cells in 24-well plates (about 500,000 cells per well) were incubated in binding buffer containing radioligand (about 100,000 cpm per well) with or without unlabeled peptide ligand (3×10^−9 to 1×10^−5 M) for four hours at 15° C. The binding mixture was then removed by aspiration, the cells were rinsed three times with binding buffer, lysed in 1 M NaOH, and the entire lysate was counted for gamma-irradiation in a gamma counter. Binding to PTHR-delNt in COS-7 cell membranes was assessed in 96-well, vacuum filtration plates (Multiscreen-Durapore HV, […] membranes, Millipore Corp., Millford, Mass.) using ^125I-[Aib^1,3,M]PTH(1-15)NH2 as a tracer radioligand, as described (Dean, T., (2006) Mol Endocrinol 20:931-942). In brief, cell membranes (20 μg/well) were incubated in membrane binding buffer containing radioligand (30,000 cpm/well) with or without unlabeled peptide ligand (3×10^−9 to 1×10^−5 M) for 90 minutes at 21° C. The plates were then subject to rapid vacuum filtration, the filters were washed once with buffer, detached from the plate and counted for gamma-irradiation in a gamma counter. Non-specific binding was defined as the binding observed in the presence of 1×10^−6 M PTH(1-31)NH2 for HKRK-B7 and ROS 17/2.8 cells, and 1×10^−6 M [Aib^1,3,M]PTH(1-15)NH2 for PTHR-delNt. Specifically bound radioactivity was calculated as a percentage of the radioactivity specifically bound in the absence of competing ligand. […]

[1] = Circular dichroism spectroscopy, helical residues per peptide chain; format: physicochemical; details: calculated from [θ]222
Procedure: Circular Dichroism—CD spectra were obtained on a JASCO J-600 spectropolarimeter at 20° C. Four spectra were averaged and the data smoothed by the JASCO software. The instrument was calibrated with ammonium (+)-10-camphorsulfonate. Peptide concentrations were verified from the absorption at 280 nm, using an extinction coefficient of 5700 M^−1 for the single tryptophan. Data are expressed as the number of helical residues per peptide chain, as calculated from −[θ]222×30/28,000, where [θ]222 is the mean residue elipticity ([θ]) at 222 nm, as was described previously (Barbier, J. R., et al. (2005) J Biol Chem. 280:23771-23777).

[2] = [Ala1,Arg19]hPTH(1-31)NH2 analogs

Work on `CCCC[C@H](NC(=O)[C@H](CC(C)C)NC(=O)[C@H](CCC(N)=O)NC(=O)[C@@H](NC(=O)[C@H](CCC(=O)O)NC(=O)C(C)(C)NC(=O)[C@@H](NC(=O)C(C)(C)N)C(C)C)[C@@H](C)CC)C(=O)N[C@@H](Cc1c[nH]cn1)C(=O)N[C@@H](CCC(N)=O)C(=O)N[C@@H](CCCCNC(=N)N)C(=O)N[C@@H](C)C(=O)N[C@@H](CCCCN)C(=O)N[C@@H](Cc1c[nH]c2ccccc12)C(=O)N[C@@H](Cc1ccc(O)cc1)C(N)=O` [[Aib^1,3,M]PTH(1-15), [Aib^1,3,Nle^8,Gln^10,homoarginine^11,Ala^12,Trp^14,Tyr^15]PTH(1-15)NH2, reference compound] (H-[Aib]V[Aib]EIQL[Nle]HQ[hArg]AKWY-NH2; N-terminus assumed) yielded an IC50 (PTHR-delNt; hPTH(1-31)NH2 analogs) of 2.2 ± 0.5 nM.
With `CCCC[C@H](NC(=O)[C@H](CCC(=O)O)NC(=O)[C@H](CCSC)NC(=O)[C@H](CO)NC(=O)[C@H](CC(N)=O)NC(=O)[C@H](CC(C)C)NC(=O)[C@H](Cc1c[nH]cn1)NC(=O)[C@H](CCCCN)NC(=O)CNC(=O)[C@H](CC(C)C)NC(=O)[C@H](CC(N)=O)NC(=O)[C@H](Cc1c[nH]cn1)NC(=O)[C@H](CCSC)NC(=O)[C@H](CC(C)C)NC(=O)[C@H](CCC(N)=O)NC(=O)[C@@H](NC(=O)[C@H](CCC(=O)O)NC(=O)[C@H](CO)NC(=O)[C@@H](NC(=O)[C@@H](N)CO)C(C)C)[C@@H](C)CC)C(=O)N[C@H](C(=O)N[C@@H](CCC(=O)O)C(=O)N[C@@H](Cc1c[nH]c2ccccc12)C(=O)N[C@@H](CC(C)C)C(=O)N[C@@H](CCCNC(=N)N)C(=O)N[C@@H](CCCCN)C(=O)N[C@@H](CCCCN)C(=O)N[C@@H](CC(C)C)C(=O)N[C@@H](CCC(N)=O)C(=O)N[C@@H](CC(=O)O)C(=O)N[C@H](C(N)=O)C(C)C)C(C)C` [Arg^20→Nle] (H-SVSEIQLMHNLGKHLNSME[Nle]VEWLRKKLQDV-NH2; N-terminus assumed) the CD helical residues ([1]; hPTH(1-31)NH2 analogs) was 12 and the IC50 (PTHR-delNt; hPTH(1-31)NH2 analogs) was 10700 nM.
With “AVSEIQLMHNLGKHLNSMRRVEWLRKKEQDV-NH2 [Leu^28→Glu]” the CD helical residues [1, 2] was 5, the “effect on binding to PTHR-delNt (in words)” value (PTHR-delNt; COS-7 membranes) was “only mildly impaired binding to PTHR-delNt” and the “reduction (alteration) of binding affinity for PTHR-delNt relative to parent peptide” value (PTHR-delNt; COS-7 membranes, versus the respective parent peptide) was “less than three-fold”. It also gave an IC50 (PTHR-delNt; [2]) of 974 ± 252 nM.
`CC[C@H](C)[C@H](NC(=O)[C@H](CCC(=O)O)NC(=O)[C@H](CO)NC(=O)[C@@H](NC(=O)[C@H](C)N)C(C)C)C(=O)N[C@@H](CCC(N)=O)C(=O)N[C@@H](CC(C)C)C(=O)N[C@@H](CCSC)C(=O)N[C@@H](Cc1c[nH]cn1)C(=O)N[C@@H](CC(N)=O)C(=O)N[C@@H](CC(C)C)C(=O)NCC(=O)N[C@@H](CCCCN)C(=O)N[C@@H](Cc1c[nH]cn1)C(=O)N[C@@H](CC(C)C)C(=O)N[C@@H](CC(N)=O)C(=O)N[C@@H](CO)C(=O)N[C@@H](CCSC)C(=O)N[C@@H](CCCNC(=N)N)C(=O)N[C@@H](CCCNC(=N)N)C(=O)N[C@@H](CC1CCCCC1)C(=O)N[C@@H](CCC(=O)O)C(=O)N[C@@H](Cc1c[nH]c2ccccc12)C(=O)N[C@@H](CC(C)C)C(=O)N[C@@H](CCCNC(=N)N)C(=O)N[C@@H](CCCCN)C(=O)N[C@@H](CCCCN)C(=O)N[C@@H](CC(C)C)C(=O)N[C@@H](CCC(N)=O)C(=O)N[C@@H](CC(=O)O)C(=O)N[C@H](C(N)=O)C(C)C` [Val^21→Cha] (H-AVSEIQLMHNLGKHLNSMRR[Cha]EWLRKKLQDV-NH2; N-terminus assumed) showed a CD helical residues [1, 2] of 9 and an IC50 (PTHR-delNt; [2]) of 564 ± 172 nM.
For `CC[C@H](C)[C@H](NC(=O)[C@H](CCC(=O)O)NC(=O)[C@H](CO)NC(=O)[C@@H](NC(=O)[C@H](C)N)C(C)C)C(=O)N[C@@H](CCC(N)=O)C(=O)N[C@@H](CC(C)C)C(=O)N[C@@H](CCSC)C(=O)N[C@@H](Cc1c[nH]cn1)C(=O)N[C@@H](CC(N)=O)C(=O)N[C@@H](CC(C)C)C(=O)NCC(=O)N[C@@H](CCCCN)C(=O)N[C@@H](Cc1c[nH]cn1)C(=O)N[C@@H](CC(C)C)C(=O)N[C@@H](CC(N)=O)C(=O)N[C@@H](CO)C(=O)N[C@@H](CCSC)C(=O)N[C@@H](CCCNC(=N)N)C(=O)N[C@@H](CCCNC(=N)N)C(=O)N[C@H](C(=O)N[C@@H](CC1CCCCC1)C(=O)N[C@@H](Cc1c[nH]c2ccccc12)C(=O)N[C@@H](CC(C)C)C(=O)N[C@@H](CCCNC(=N)N)C(=O)N[C@@H](CCCCN)C(=O)N[C@@H](CCCCN)C(=O)N[C@@H](CC(C)C)C(=O)N[C@@H](CCC(N)=O)C(=O)N[C@@H](CC(=O)O)C(=O)N[C@H](C(N)=O)C(C)C)C(C)C` [Glu^22→Cha] (H-AVSEIQLMHNLGKHLNSMRRV[Cha]WLRKKLQDV-NH2; N-terminus assumed), the CD helical residues [1, 2] was 8 and the IC50 (PTHR-delNt; [2]) was 126 ± 45 nM.
In the case of `CC[C@H](C)[C@H](NC(=O)[C@H](CCC(=O)O)NC(=O)[C@H](CO)NC(=O)[C@@H](NC(=O)[C@H](C)N)C(C)C)C(=O)N[C@@H](CCC(N)=O)C(=O)N[C@@H](CC(C)C)C(=O)N[C@@H](CCSC)C(=O)N[C@@H](Cc1c[nH]cn1)C(=O)N[C@@H](CC(N)=O)C(=O)N[C@@H](CC(C)C)C(=O)NCC(=O)N[C@@H](CCCCN)C(=O)N[C@@H](Cc1c[nH]cn1)C(=O)N[C@@H](CC(C)C)C(=O)N[C@@H](CC(N)=O)C(=O)N[C@@H](CO)C(=O)N[C@@H](CC1CCCCC1)C(=O)N[C@@H](CCCNC(=N)N)C(=O)N[C@@H](CCCNC(=N)N)C(=O)N[C@H](C(=O)N[C@@H](CCC(=O)O)C(=O)N[C@@H](Cc1c[nH]c2ccccc12)C(=O)N[C@@H](CC(C)C)C(=O)N[C@@H](CCCNC(=N)N)C(=O)N[C@@H](CCCCN)C(=O)N[C@@H](CCCCN)C(=O)N[C@@H](CC(C)C)C(=O)N[C@@H](CCC(N)=O)C(=O)N[C@@H](CC(=O)O)C(=O)N[C@H](C(N)=O)C(C)C)C(C)C` [Met^18→Cha] (H-AVSEIQLMHNLGKHLNS[Cha]RRVEWLRKKLQDV-NH2; N-terminus assumed), the CD helical residues [1, 2] is reported as 8 and the IC50 (PTHR-delNt; [2]) is reported as 408 ± 32 nM.
With “AVSEIQLMHNLGKHLNSMRRVEWLRKKLQDV-NH2 [[Ala^1,Arg^19]PTH(1-31)NH2]” the IC50 (PTHR-delNt; [2]) was 400 nM and 397 nM.
